For test [1], the system named is TLR9. The test can be described thus: TLR9 response: ODN 2395 induced IL-6 production in PBMCs.
Method: (§3) To evaluate TLR3 responses, frozen PBMCs were thawed in culture medium. A total of 2x10^5 PBMCs were seeded per well in a 96-well tissue culture plate for the assay. One hour following incubation with compounds at 37°C, 5% CO2, the PBMCs were treated with a PBMC donor-specific EC80 concentration of the high molecular weight Poly I:C (TLR3 ligand, Invivogen, San Diego, CA) or appropriate controls, and were allowed to incubate at 37°C, 5% CO2 for 24 hours. Twenty four hours following incubation, 120μl of the cell culture supernatant was removed from the cell culture plates and frozen at -80°C until further analysis. To evaluate TLR7 and TLR9 responses, PBMCs were thawed in culture medium, reconstituted to a concentration of 3x10^6 cells/ml, dispensed into ultra-low attachment flasks and incubated at 37°C, 5% CO2 for 24h with continuous rocking. The PBMCs were harvested from the flask, seeded at a density of 2x10^5 PBMCs/well in compound-dispensed assay plates and allowed to incubate at 37°C, 5% CO2 for 24 hours. One hour following incubation with compounds at 37°C, 5% CO2, the PBMCs were treated with a PBMC donor-specific EC80 concentration of high molecular weight CL264 (TL7 ligand, Invivogen, San Diego, CA) or ODN 2395 (TLR9 ligand, Invivogen, San Diego, CA), or appropriate controls, and were allowed to incubate at 37°C, 5% CO2 for 24 hours. Twenty four hours following incubation, 120μl of the cell culture supernatant was removed from the cell culture plates and frozen at -80°C until further analysis. The cell culture supernatants were analyzed for IP-10 or IL-6 levels using MSD kits (Meso Scale Discovery, Rockville, MD) according to manufacturer’s protocols.
(§4) The stimulant was the chemical agent that was used to elicit the response in the assay (i.e., TLR ligands in the TLR assay). We used EC80 stimulation conditions for evaluating the impact of compounds in assays with titrable stimulants. To account for donor-to-donor variability in PBMCs, we used donors that whose EC80 values were within a 3-fold range determined by dose-response experiments with the stimulants.
In test [2] the test system is TLR3. The test can be described thus: TLR3 response: Poly I:C induced IP-10 production in PBMCs.
Method: as §3, §4
For test [3], the system named is TLR7. The test can be described thus: TLR7 response: TLR7 agonist induced IL-6 production in PBMCs. The note with it: for TLR7 Max inhibition: sheet 'TLR7', % maximal inhibition = 'top' of curve fit.
Method: as §3, §4
The subject of test [4] is NK cell mediated killing of K562 cells.
Method: (§5) A commercially available kit was used to asses NK cell killing (NK Test, Glycotope Biotechnology). Human PBMCs (effector cells) resuspended in culture medium were plated in a round bottom, sterile poly propylene 96 well plate (Corning #3359) and incubated with compounds (final DMSO concentration 0.1%) for 1 hour. Membrane labeled GFP positive K562 cells (target cells) were then added to the effector cells at a 1:50 target–effector ratio. Cells were centrifuged for 3 minutes at 120xg to ensure cell-cell contact and incubated at 37°C, 5% CO2 for 2 hours. Cells were then resuspended in propidium iodide staining solution and incubated at room temperature for 5 minutes. A total of 10,000 target cell events were acquired on a BD Fortessa flow cytometer, and the data was analyzed by FACSDiva or Flowjo.
(§6) We used EC80 stimulation conditions for evaluating the impact of compounds in assays with titrable stimulants. To account for donor-to-donor variability in PBMCs, we used donors that whose EC80 values were within a 3-fold range determined by dose-response experiments with the stimulants. For the NK cell killing assay, we used the conditions and donors that gave the best assay window (i.e., 1:50 target:effector ratio). For the T cell stimulation assay, we performed a dose-titration of αCD3 and αCD28 to determine the stimulation conditions used in this assay. […] Every assay plate contained samples that would elicit a minimal response (no stimulant), maximal response (stimulant with no compounds), compound dose-response (stimulant with compounds) and positive control (stimulant with compound that is known to inhibit the assay). We evaluated the impact of small molecule inhibitors in 8–10 different doses for every PBMC sample in every assay. The values obtained from multiple PBMC donors were compiled together to calculate the inhibitory concentrations of the compounds in a given assay.
(§7) Each assay contained samples that would elicit a minimal and a maximal response, which defined the assay window.
In test [5] the test system is TLR3.
Method: as §3, §4
The subject of test [6] is TLR9.
Method: as §3, §4
Test [7] deals with TLR7.
Method: as §3, §4
The subject of test [8] is ROS production by neutrophils in human whole blood. The experiment in a line: Phagocyte oxidative burst (Phagoburst), neutrophil ROS production in whole blood. Format: cell-based. The note with it: for IC50: sheet 'IC50 values', whole blood, 10 min, corrected for plasma protein binding, unit inferred, Assay control = DPI, read-out: PB_Neut IC50. The protocol:
(§1) Phagocytic oxidative burst was assessed in whole blood samples using the Phagoburst kit (Orpegen Biopharma, #10–0200). The assay was modified to accommodate a 96 well format. Briefly, 50 μL human whole blood was mixed well with compounds (0.1% final DMSO concentration) and incubated for 30 minutes at 37°C, 5% CO2. Then, samples were incubated on ice for 5 minutes, followed by the addition of 10uL of reagent B (opsonized bacteria). Samples were then mixed well and incubated for 10 minutes in a 37°C water bath. Next, 10μL of reagent E (substrate solution) was added to the samples, mixed well and incubated for an additional 10 minutes in the 37°C water bath. Then, 150uL of reagent F (lysis solution) was added to all wells, mixed well and incubated for 20 minutes at room temperature. Samples were washed twice with reagent A and incubated with 90μL of reagent G (DNA staining solution) for 10 minutes, on ice and protected from light. The samples were analyzed in a BD Fortessa flow cytometer. Cells were gated based on Forward and Side scatter properties and high content DNA. A total of 10,000 cell events (high content DNA) were collected, analyzed using FACSDiva or Flowjo and the oxidative burst was measured by the geometric mean fluorescence intensity (GMFI) of the ROS detection dye in the assay (Figure C in S2 Fig).
(§2) Compounds were spiked at 1 μM in plasma. […] Following centrifugation, samples were analyzed using LC-MS/MS. […] A similar methodology was followed for media binding.

Test [9] concerns NK cell mediated killing of K562 cells. The test can be described thus: NK cell killing function (NK Test, PBMC effectors, K562 target cells).
Method: as §5, §6, §7
Test [10] concerns gene expression of stimulated human PBMCs. The experiment in a line: Nanostring mRNA profiling in the T cell stimulation assay (anti-CD3 + anti-CD28 PBMCs). As to conditions: for impact on gene expression profile of stimulated PBMCs: 24 h after anti-CD3 and anti-CD28 stimulation, n = 3 donors. Format: cell-based. The protocol:
Cell pellets from experiments were lysed in RLT buffer and prepared according to standard protocol recommended by NanoString Technologies. Briefly, lysates were co-incubated with capture and reporter probes (NanoString Technologies Immunology v2 Codeset) in a thermal cycler set at 65°C for 24 hours. Samples were processed and analyzed with a Generation 2 nCounter. Counts from samples were normalized using housekeeping genes scored on the Nanostring platform. Samples with counts less than 20 were excluded from further analysis. The Matlab function ttest2 was used to determine p-values for log2 fold changes, and the function agglomerative was used to perform clustering.

In test [11] the test system is CD8+ T cell proliferation in human PBMCs. The test can be described thus: CD8+ T cell proliferation in anti-CD3 + anti-CD28 stimulated PBMCs (EdU flow cytometry, 72 h). As to conditions: for impact on CD8+ T cell proliferation: PBMC, anti-CD3 + anti-CD28, 72 h. In general terms: A flow cytometer gives signals particle by particle.
Method: (§8) Peripheral blood mononuclear cells in culture media were pre-treated with compounds (0.1% final DMSO concentration) for 45 minutes at 37°C, 5% CO2 and then transferred into anti-CD3 (1 μg/mL, OKT3, eBioscience, San Diego, CA) coated plate containing soluble anti-CD28 (1 μg/mL, Fitzgerald, Acton, MA). Twenty four hours after stimulation, an aliquot of cell culture supernatant was collected and evaluated for IL-2 production (MesoScale Discovery, Rockville, MD) according to manufacturer’s instructions. The remaining culture was allowed to continue incubation for an additional 48 hours. To evaluate proliferation, Click-iT EdU Alexa Flour 647 Assay Kit (Invitrogen, Carlsbad, CA) was used according to manufacturer’s instructions, and proliferation was evaluated at 72 hours following stimulation. The cells were stained with flourochrome conjugated antibodies against CD3, CD4 and CD8 and analyzed in a BD Fortessa flow cytometer by acquiring 8–10,000 events. The data was analyzed by FACSDiva or FlowJo and reported as the percentage of EdU^+CD3^+CD4^+ and EdU^+CD3^+CD8^+ lymphocytes (Figure A in S2 Fig).
(§9) The stimulant was the chemical agent that was used to elicit the response in the assay (i.e., TLR ligands in the TLR assay). We used EC80 stimulation conditions for evaluating the impact of compounds in assays with titrable stimulants. To account for donor-to-donor variability in PBMCs, we used donors that whose EC80 values were within a 3-fold range determined by dose-response experiments with the stimulants. For the NK cell killing assay, we used the conditions and donors that gave the best assay window (i.e., 1:50 target:effector ratio). For the T cell stimulation assay, we performed a dose-titration of αCD3 and αCD28 to determine the stimulation conditions used in this assay. For the phagocyte oxidative burst assay, since we could not screen human whole blood for selecting best responders, we followed the manufacturer’s protocol on 8–10 different human whole blood samples. Every assay plate contained samples that would elicit a minimal response (no stimulant), maximal response (stimulant with no compounds), compound dose-response (stimulant with compounds) and positive control (stimulant with compound that is known to inhibit the assay). We evaluated the impact of small molecule inhibitors in 8–10 different doses for every PBMC sample in every assay. The values obtained from multiple PBMC donors were compiled together to calculate the inhibitory concentrations of the compounds in a given assay.
as §7
The subject of test [12] is IL-2 production by T cells in human PBMCs.
Method: as §8, §9, §7
The test system of test [13] is CD4+ T cell proliferation in human PBMCs.
Method: as §8, §9, §7
The test system of test [14] is CD8+ T cell proliferation in human PBMCs.
Method: as §8, §9, §7
For test [15], the system named is IL-2 production by T cells in human PBMCs. The test can be described thus: T cell activation: IL-2 production in anti-CD3 + anti-CD28 stimulated PBMCs (MSD, 24 h). The note with it: for impact on IL-2 production: PBMC, anti-CD3 + anti-CD28, 24 h; for Tcell_IL2 Max inhibition: sheet 'Tcell_IL2', % maximal inhibition = 'top' of curve fit.
Method: as §8, §9, §7
For test [16], the system named is CD4+ T cell proliferation in human PBMCs. The experiment in a line: CD4+ T cell proliferation in anti-CD3 + anti-CD28 stimulated PBMCs (EdU flow cytometry, 72 h). The note with it: for impact on CD4+ T cell proliferation: PBMC, anti-CD3 + anti-CD28, 72 h.
Method: as §8, §9, §7
Test [17] relates to ROS production by monocytes in human whole blood. The test can be described thus: Phagocyte oxidative burst (Phagoburst), monocyte ROS production in whole blood. Format: cell-based. The protocol: as §1, §2
The mark [18] stands for this setting: human whole blood, opsonized bacteria.

Several values for one entry are separate records, joined by “and”; a condition that tells them apart may be missing. Identical values can stand only once. Entries after “also recorded” stand apart in the source; their conditions may differ. Like-named read-outs stand apart in the source and are kept apart here.

On to `Cc1ccc(S(=O)(=O)/C=C/C#N)cc1` [BAY-11, BAY 11–7082], for which, in the test with TLR9 [1], the “effect on TLR9 response, ODN 2395 induced IL-6” value is “fully inhibited this response”. Further, the “effect on TLR3 response, Poly (I:C) induced IP-10” value with TLR3 [2] is reported as “fully inhibited the response”. In addition, in the test with TLR7 [3], the “effect on TLR7 response, IL-6 production” value was “fully inhibited this response”.
For `CC(C)(C)c1nc2c3cc[nH]c(=O)c3c3cc(F)ccc3c2[nH]1` [JAK inhibitor 1], the IC50 – broadly, the concentration that gives 50% inhibition – came out at 65.9 µM in test [4]; 0.0611 µM with TLR3 [5]; 0.026 µM with TLR9 [6]; 0.547 µM in the test with TLR7 [7]; 354 nM in test [8] (opsonized bacteria).
`C/C1=C/C(=O)O[C@@H]2C[C@@H](CC[C@H](C)/C=C\C=C\CC1)O[C@@](O)([C@@H]1CSC(=O)N1)C2` [Latrunculin A, latrunculin A]: the “effect on NK cell killing activity” value in [9] was “completely inhibited”.
`Cc1oncc1C(=O)Nc1ccc(C(F)(F)F)cc1` [Leflunomide, leflunomide]: the IC50 in test [4] was 48.1 µM; in the test on TLR9 [6] it was 0.0254 µM and 0.0259 µM.
As for `CN(Cc1cnc2nc(N)nc(N)c2n1)c1ccc(C(=O)N[C@@H](CCC(=O)O)C(=O)O)cc1` [Methotrexate], in test [10] (1μM), the “impact on gene expression profile of stimulated PBMCs” value (from here on “impact on gene expression profile”) is “minimal impact on restoring the gene expression profile”. Further, the “maximal inhibition of CD8+ T cell proliferation” value in [11] is recorded as “around 30%”. The figures for the IC50 in [12], in test [13] and in [14] were 4.96 µM, 0.00588 µM and 0.0105 µM, respectively. Besides, in [15], the “impact on IL-2 production” value is “marginal but variable impact”. For the same molecule, the “Tcell_IL2 Max inhibition” value in test [15] is reported as 27.8. In [16], the “maximal inhibition of CD4+ T cell proliferation” value was “around 30%”.
As to `COc1c(C)c2c(c(O)c1C/C=C(\C)CCC(=O)OCCN1CCOCC1)C(=O)OC2` [Mycophenolate Mofetil, mycophenolate mofetil], the IC50 with TLR9 [6] is 2.17 µM and 3.06 µM. For the same molecule, in test [10] (1μM, 24 h), the “IL-2 mRNA expression” value is recorded as “partially reduced”. In addition, the “impact on gene expression profile” value in [10] (1μM) is listed as “minimal impact on restoring the gene expression profile”. Also, the “impact on CD8+ T cell proliferation” value in test [11] is listed as “inhibited”. Also, in test [15], the “impact on IL-2 production” value is recorded as “inhibited” and the “Tcell_IL2 Max inhibition” value worked out at 49.64. For the same molecule, in test [16], the “impact on CD4+ T cell proliferation” value is recorded as “inhibited”.
Take `C[C@]12C=CC(=O)C=C1CC[C@@H]1[C@@H]2[C@@H](O)C[C@@]2(C)[C@H]1CC[C@]2(O)C(=O)CO` [Prednisolone, prednisolone]: the IC50 in test [4] was 21.5 µM; with TLR3 [5], 0.921 µM and 0.99 µM; in the test on TLR9 [6], 0.0332 µM and 0.0357 µM; in the test with TLR7 [7] it was 0.0317 µM and 0.0341 µM; in test [12], 0.0755 µM. In the test with TLR9 [1], the “effect on TLR9 response, ODN 2395 induced IL-6” value is listed as “dose-dependent inhibition; also recorded: potent in inhibiting TLR9 responses”. The “IL-2 mRNA expression” value in test [10] (1μM, 24 h) is “partially reduced”. Besides, the “IL-4 mRNA expression” value in [10] (1μM, 24 h) is “reduced”. For the same molecule, the “IL-13 mRNA expression” value in test [10] (1μM, 24 h) was “reduced”. Further, the “impact on gene expression profile” value in test [10] (1μM) was “modified the gene expression profile of stimulated samples similar to that of unstimulated cells”. Moreover, in test [10] (three concentrations, 3h, 6h and 24h following stimulation), the “IL-2 mRNA expression, time and dose course” value was “impacted in a time- and dose-dependent manner”. The “impact on CD8+ T cell proliferation” value in test [11] is “did not have an impact”. The “TLR7 Max inhibition” value with TLR7 [3] amounted to 93.77. Besides, the “impact on IL-2 production” value in test [15] is given as “inhibited only IL-2 production”. Further, in test [15], the “Tcell_IL2 Max inhibition” value amounted to 71.87. In test [16], the “impact on CD4+ T cell proliferation” value is “did not have an impact”.
For `CO[C@H]1C[C@@H]2CC[C@@H](C)[C@@](O)(O2)C(=O)C(=O)N2CCCC[C@H]2C(=O)O[C@H]([C@H](C)C[C@@H]2CC[C@@H](O)[C@H](OC)C2)CC(=O)[C@H](C)/C=C(\C)[C@@H](O)[C@@H](OC)C(=O)[C@H](C)C[C@H](C)/C=C/C=C/C=C/1C` [Rapamycin, rapamycin], the “impact on CD8+ T cell proliferation” value in test [11] is reported as “did not have an impact”. For the same molecule, the “TLR7 Max inhibition” value with TLR7 [3] amounted to 72.11. The IC50 is 128 nM in [17] (Homo sapiens, Monocyte, 10 min, sheet 'IC50 values', whole blood, opsonized bacteria, 10 min, corrected for plasma protein binding, unit inferred, Assay control = DPI, read-out: PB_Mono IC50) and 601 nM in test [8] (Homo sapiens, Neutrophil, opsonized bacteria). In test [17] (setting [18]), the “reduction / maximal inhibition of monocyte ROS production” value was 20–40%. Also, the “PB_Mono Max inhibition” value in test [17] (sheet 'PB_Mono', % maximal inhibition = 'top' of curve fit) worked out at 13.41. The “impact on IL-2 production” value in [15] is on record as “did not have an impact”. Also, in test [8] (setting [18]), the “reduction / maximal inhibition of neutrophil ROS production” value is given as 20–40%. In addition, the “PB_Neut Max inhibition” value in [8] (sheet 'PB_Neut', % maximal inhibition = 'top' of curve fit) was determined as 36.53. The “impact on CD4+ T cell proliferation” value in [16] is reported as “did not have an impact”.
As to `c1ccc([I+]c2ccccc2)cc1` [diphenyliodonium chloride], the “effect on monocyte ROS production” value in test [17] (setting [18]) is “completely inhibit”. Besides, the “effect on neutrophil ROS production” value in test [8] (setting [18]) is on record as “completely inhibit”.

Values taken from paper PMC5515432, “A human tissue-based functional assay platform to evaluate the immune function impact of small molecule inhibitors that target the immune system” (PLoS ONE, 2017).
